Measurements reported in PMC10948870, “De novo antioxidant peptide design via machine learning and DFT studies” (Scientific Reports, 2024).

Key:
[1] = test system: red blood cells (RBCs); assay: Hemolysis assay; format: cell-based, human; conditions: 0.1% SDS + distilled water; 4 h room temperature; absorbance 450 nm
Procedure: The hemolysis test was performed as standard protocol. A 1.5 mL heparin blood sample was obtained from a healthy volunteer in our laboratory. The red blood cells (RBCs) were collected by centrifugation of blood samples at 3000 rpm for 15 min and then were washed three times with PBS. The RBC pellet was resuspended in a 10 mL phosphate-buffer solution (PBS). A 100 µL/well of different concentrations of peptides were added into a 96-well plate (2000 µg/mL, 1000 µg/mL, 500 µg/mL, 250 µg/mL, 125 µg/mL, 62.5 µg/mL, 31.25 µg/mL, 15.62 µg/mL, 7.8 µg/mL). For positive hemolysis control 100 µL/well of 0.1% sodium dodecyl sulfate and distilled water, and for negative hemolysis control 100 µL/well of PBS were added into the appropriated wells. After that, 100 µL RBC suspension was added into all the wells. The plate was incubated at room temperature for 4 h. Then the 100 µL supernatant of each well was carefully transferred to a new 96-well plate. The solution absorbance was investigated by a UV–Vis instrument at 450 nm.

[2] = Hydroxyl radical scavenging activity assay; format: biochemical; conditions: positive control, 0.5 mM solution; UV-Vis 510 nm
From the text: Hydroxyl radical is one of the strong reactive oxygen species in biological systems that react with the unsaturated fatty acid of phospholipids of the cell membrane and cause cell damage[36]–[38]. To assess the efficacy of peptides in countering hydroxyl radicals, we subjected them to a hydroxyl radical-scavenging activity assay, indicating their scavenging potential across a range of concentrations. The method for preparing the test samples, reagents, and control samples for the hydroxyl scavenging activity assay is as follows: initially, peptide samples at 10 mg/mL concentration were dissolved in ethanol, and subsequently, diluted concentrations of 2, 4, 6, and 8 mg/L were obtained from this solution. The assay reagent includes 6 mM hydrogen peroxide and 6 mM ferrous sulfate in ethanol. A solution of ascorbic acid with 0.5 mM concentration has been prepared as a positive control and a solution without the peptide sample is considered as negative control. […] After 30 min, the UV–Vis absorbance was determined at 510 nm. The determination of hydroxyl radical scavenging activity for the peptide samples was executed as follows:2 Hydroxyl radical scavenging activity%=A0-A1/A0×100, where A0 is the absorbance of the negative control (solution without the peptide sample) and A1 is the absorbance of the peptide samples.

[3] = DPPH scavenging activity assay; format: biochemical; conditions: compared among six synthesized peptides and with ascorbic acid 0.5 mM
Procedure: A straightforward and expeditious approach for quantifying the antioxidant activity of antioxidants involves employing the 2,2-diphenyl-1-picrylhydrazyl (DPPH) assay, a spectrophotometric technique[36]–[38]. Preparation of the test sample, reagent, and control sample in the DPPH assay is as follows: peptide samples with a concentration of 10 mg/mL were prepared in ethanol and then were diluted in 2, 4, 6, and 8 mg/L concentrations. The DPPH solution is prepared with a concentration of 0.02% (w/v) in methanol. A solution of 0.5 mM ascorbic acid has been prepared as a positive control, and methanol is considered as the negative control sample. The peptide sample (250 μL) with DPPH solution (250 μL) in ethanol (1.0 mL) was mixed and stirred in the dark for 30 min at room temperature. The solutions were analyzed using a UV–Vis instrument (Varian, Cary 100) at 517 nm. The calculation of antioxidant activity percentage is reported as the following equation:1 DPPH scavenging activity%=A0-A1/A0×100.
In Eq. (1), A0 is the absorbance of the negative control (methanol) and A1 is the optical absorbance of the peptide samples.

Compound	DPPH free radical scavenging activity, in words [3]	other results
CCCCCCCCCCCCOS(=O)(=O)[O-].[Na+] [SDS, sodium dodecyl sulfate]		Hemolysis, OD value of positive control [1]: 2.21
O=C1O[C@H]([C@@H](O)CO)C(O)=C1O [ascorbic acid]		Hydroxyl radical scavenging activity [2]: 93.9%
LHHWY [GP12, ML-generated antioxidant peptide LHHWY, synthesized]	highest free radical scavenging activity	
YWHW [GP9, ML-generated antioxidant peptide YWHW, synthesized]	highest free radical scavenging activity	
YWYHF [GP10, ML-generated antioxidant peptide YWYHF, synthesized]	highest free radical scavenging activity	
